Molecular target: T1, Aromatase (Homo sapiens, UniProt P11511)
T1 sequence (P11511 whole entry): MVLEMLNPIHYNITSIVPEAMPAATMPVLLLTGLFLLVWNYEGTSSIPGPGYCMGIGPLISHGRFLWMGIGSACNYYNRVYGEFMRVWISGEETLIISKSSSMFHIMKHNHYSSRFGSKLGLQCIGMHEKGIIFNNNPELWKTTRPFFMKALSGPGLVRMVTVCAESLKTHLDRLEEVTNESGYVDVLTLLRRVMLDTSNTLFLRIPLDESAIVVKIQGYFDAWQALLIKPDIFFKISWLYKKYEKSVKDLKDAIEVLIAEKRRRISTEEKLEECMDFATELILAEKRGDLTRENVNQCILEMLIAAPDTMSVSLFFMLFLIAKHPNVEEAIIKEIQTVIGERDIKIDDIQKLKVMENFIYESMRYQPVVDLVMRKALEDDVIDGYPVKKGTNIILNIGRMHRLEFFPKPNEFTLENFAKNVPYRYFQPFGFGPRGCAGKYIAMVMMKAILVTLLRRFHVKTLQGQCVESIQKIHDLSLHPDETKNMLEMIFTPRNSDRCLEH

SMILES: C[C@]12C=CC(=O)C=C1C(CCCc1ccccc1)=C[C@@H]1[C@@H]2CC[C@]2(C)C(=O)CC[C@@H]12
- IC50: 350 nM

SMILES: C[C@]12C=CC(=O)C=C1C(CCCCc1ccccc1)=C[C@@H]1[C@@H]2CC[C@]2(C)C(=O)CC[C@@H]12
- IC50: 150 nM

SMILES: C[C@]12C[C@@H](CCCc3ccccc3)C(=O)C=C1CC[C@@H]1[C@@H]2CC[C@]2(C)C(=O)CC[C@@H]12
- IC50: 50200 nM

SMILES: Cc1ccc(S(=O)(=O)N2[C@@H]3[C@@H]4[C@H](CC[C@]5(C)C(=O)CC[C@@H]45)[C@@]4(C)CCC(=O)C=C4[C@@H]32)cc1 (stereo partly drawn)
- IC50: 53800 nM

SMILES: C[C@]12CC[C@H]3[C@@H]([C@@H]4C[C@@H]4C4=CCCC[C@@]43C)[C@@H]1CC[C@@H]2O
- IC50: 2700 nM

SMILES: CCCCCCC1=C[C@@H]2[C@H](CC[C@]3(C)C(=O)CC[C@@H]23)[C@@]2(C)C=CC(=O)C=C12
- IC50: 155 nM

SMILES: Cc1cc2c(cc1O)CC[C@@H]1[C@@H]2CC[C@]2(C)C(=O)CC[C@@H]12
- IC50: 4300 nM

SMILES: C[C@]12CC[C@H]3[C@@H](CCC4=CC(=O)CC[C@@]43CO)[C@@H]1C[C@@H](O)C2=O
- IC50: 800000 nM

SMILES: C[C@]12CC[C@@H]3c4cc(C=O)c(O)cc4CC[C@H]3[C@@H]1CC[C@@H]2O
- IC50: 101000 nM

SMILES: CCCCCC[C@H]1C[C@@H]2[C@H](CC[C@]3(C)C(=O)CC[C@@H]23)[C@@]2(C)CCC(=O)C=C12
- IC50: 1000 nM

SMILES: CC[C@]12CCC(=O)C=C1CC[C@@H]1[C@@H]2CC[C@]2(C)C(=O)CC[C@@H]12
- IC50: 300 nM

SMILES: CCCCCCC1=C[C@@]2(C)C(=CC1=O)CC[C@@H]1[C@@H]2CC[C@]2(C)C(=O)CC[C@@H]12
- IC50: 298 nM

SMILES: CCO[C@H]1C[C@@H]2[C@H](CC[C@]3(C)C(=O)CC[C@@H]23)c2ccc(O)cc21
- IC50: 74000 nM

SMILES: C[C@@H]1C[C@@H]2[C@H](CC[C@]3(C)C(=O)CC[C@@H]23)[C@@]2(C)CCC(=O)C=C12
- IC50: 719 nM

SMILES: C[C@]12CC[C@@H]3c4cc(Br)c(O)cc4CC[C@H]3[C@@H]1CC[C@@H]2O
- IC50: 89900 nM

SMILES: C[C@]12CCC(=O)C=C1[C@H](O)C[C@@H]1[C@@H]2CC[C@]2(C)C(=O)CC[C@@H]12
- IC50: 11000 nM

SMILES: C[C@]12CC[C@@H]3c4ccc(O)cc4[C@H](c4ccccc4)C[C@H]3[C@@H]1CCC2=O
- IC50: 12000 nM

SMILES: C[C@]12CC[C@H]3[C@@H]([C@H](Cc4ccccc4)CC4=CC(=O)CC[C@@]43C)[C@@H]1CC[C@@H]2O
- IC50: 39.5 nM

SMILES: C[C@]12CC[C@H]3[C@@H](CC(=O)[C@]45O[C@H]4CCC[C@]35C)C1CCC2=O (stereo partly drawn)
- IC50: 11500 nM

SMILES: C[C@]12CC[C@@H]3c4cc(Cl)c(O)cc4CC[C@H]3[C@@H]1CCC2=O
- IC50: 2300 nM

SMILES: C[C@]12C=CC(=O)C=C1[C@@H](CCc1ccccc1)C[C@@H]1[C@@H]2CC[C@]2(C)C(=O)CC[C@@H]12
- IC50: 320 nM

SMILES: CC(=O)N1[C@H]2[C@@H]3[C@H](CC[C@]4(C)C(=O)CC[C@@H]34)[C@@]3(C)CCC(=O)C=C3[C@H]21
- IC50: 64600 nM

SMILES: CCCCO[C@@H]1C[C@@H]2[C@H](CC[C@]3(C)C(=O)CC[C@@H]23)c2ccc(O)cc21
- IC50: 174000 nM

SMILES: COC1=C2C(=O)C[C@@H]3[C@H](CC[C@]4(C)C(=O)CC[C@@H]34)[C@@]2(C)CC(C)(C)C1=O
- IC50: 1900 nM

SMILES: C[C@]12CC[C@H]3[C@@H](CC(=O)C4=CCCC[C@@]43CO)[C@@H]1CCC2=O
- IC50: 5790 nM

SMILES: CCCCS[C@@H]1CC2=CC(=O)CC[C@]2(C)[C@H]2CC[C@]3(C)C(=O)CC[C@H]3[C@H]12
- IC50: 57 nM

SMILES: C[C@]12CCC(=O)C=C1C(Cc1ccccc1)=C[C@@H]1[C@@H]2CC[C@]2(C)C(=O)CC[C@@H]12
- IC50: 78 nM

SMILES: CC(=O)OC[C@]12CCCC=C1CC[C@@H]1[C@@H]2CC[C@]2(C)C(OC(C)=O)CC[C@@H]12 (stereo partly drawn)
- IC50: 38000 nM

SMILES: CCC1C[C@H]2[C@@H]3CC[C@H](O)[C@@]3(C)CC[C@@H]2[C@@]2(C)CCC(=O)C=C12 (stereo partly drawn)
- IC50: 52 nM

SMILES: C[C@]12CCC(=O)C=C1C(=O)[C@@H](O)[C@@H]1[C@@H]2CC[C@]2(C)C(=O)CC[C@@H]12
- IC50: 11000 nM

SMILES: C[C@]12CC[C@@H]3c4ccc(O)c(NC(=O)c5cccnc5)c4CC[C@H]3[C@@H]1CCC2=O
- IC50: 95700 nM

SMILES: C[C@]12C=CC(=O)C=C1[C@@H](Cc1ccccc1)C[C@@H]1[C@@H]2CC[C@]2(C)C(=O)CC[C@@H]12
- IC50: 270 nM

SMILES: C[C@]12CC[C@H]3[C@@H](C(=O)C=C4CCCC[C@@]43CO)[C@@H]1CCC2O (stereo partly drawn)
- IC50: 43000 nM

SMILES: CCCCOC1=C[C@@]2(C)C(=CC1=O)CC[C@@H]1[C@@H]2CC[C@]2(C)C(=O)CC[C@@H]12
- IC50: 29600 nM

SMILES: CCC[C@@H]1C[C@@H]2[C@H](CC[C@]3(C)C(=O)CC[C@@H]23)[C@@]2(C)CCCC=C12
- IC50: 440 nM

SMILES: C[C@]12CC[C@H]3[C@@H](C(=O)C=C4CCCC[C@@]43CO)[C@@H]1CCC2=O
- IC50: 3300 nM

SMILES: C[C@]12C=CC(=O)C=C1[C@H](CCc1ccccc1)C[C@@H]1[C@@H]2CC[C@]2(C)C(=O)CC[C@@H]12
- IC50: 579 nM

SMILES: C#C[C@@H]1C[C@@H]2[C@H](CC[C@]3(C)C(=O)CC[C@@H]23)[C@@]2(C)CCC(=O)C=C12
- IC50: 1900 nM

SMILES: COc1cc2c(cc1O)CC[C@@H]1[C@@H]2CC[C@]2(C)C(=O)CC[C@@H]12
- IC50: 17000 nM

SMILES: C[C@]12CCCCC1=CC[C@@H]1[C@@H]2CC[C@]2(C)C(=O)[C@H](Br)C[C@@H]12
- IC50: 55000 nM

SMILES: CC[C@H]1C[C@@H]2[C@H](CC[C@]3(C)C(=O)CC[C@@H]23)[C@@]2(C)CCCC=C12
- IC50: 110 nM

SMILES: C[C@]12CC[C@H]3[C@@H](CCC4=CC(=O)CC[C@@]43C(F)F)[C@@H]1CCC2=O
- IC50: 4000 nM

SMILES: C[C@]12CC[C@@H]3c4cc(NC(=O)c5ccccn5)c(O)cc4CC[C@H]3[C@@H]1CCC2=O
- IC50: 209000 nM

SMILES: CCCC[C@@H]1C[C@@H]2[C@H](CC[C@]3(C)C(=O)CC[C@@H]23)c2ccc(O)cc21
- IC50: 8990 nM

SMILES: C[C@]12CCCC=C1CC[C@@H]1[C@@H]2CC[C@]2(C)C(=O)[C@H](O)C[C@@H]12
- IC50: 4000 nM

SMILES: COc1ccc(CS[C@@H]2CC3=CC(=O)CC[C@]3(C)[C@H]3CC[C@]4(C)C(=O)CC[C@H]4[C@H]23)cc1
- IC50: 31 nM

SMILES: C[C@]12C=C(CCc3ccccc3)C(=O)C=C1CC[C@@H]1[C@@H]2CC[C@]2(C)C(=O)CC[C@@H]12
- IC50: 2570 nM

SMILES: C[C@]12CCC(=O)C=C1[C@H](CCCCc1ccccc1)C[C@@H]1[C@@H]2CC[C@]2(C)C(=O)CC[C@@H]12
- IC50: 135000 nM

SMILES: CCCCC[C@@H]1C[C@@]2(C)C(=CC1=O)CC[C@@H]1[C@@H]2CC[C@]2(C)C(=O)CC[C@@H]12
- IC50: 1280 nM

SMILES: CO[C@H]1C[C@@H]2[C@H](CC[C@]3(C)C(=O)CC[C@@H]23)c2ccc(O)cc21
- IC50: 59000 nM

SMILES: C[C@]12C=CC(=O)C=C1[C@H](Cc1ccccc1)C[C@@H]1[C@@H]2CC[C@]2(C)C(=O)CC[C@@H]12
- IC50: 590 nM

SMILES: CCCC[C@@H]1C[C@@H]2[C@H](CC[C@]3(C)[C@@H](O)CC[C@@H]23)c2ccc(O)cc21
- IC50: 44000 nM

SMILES: CCCCCC[C@@H]1C[C@@H]2[C@H](CC[C@]3(C)C(=O)CC[C@@H]23)[C@@]2(C)C=CC(=O)C=C12
- IC50: 76 nM

SMILES: C[C@]12CC[C@H]3[C@@H]([C@H](CCc4ccccc4)CC4=CC(=O)CC[C@@]43C)[C@@H]1CC[C@@H]2O
- IC50: 36 nM

SMILES: CC1(C)C[C@@]2(C)C(=CC1=O)C(=O)C[C@@H]1[C@@H]2CC[C@]2(C)C(=O)CC[C@@H]12
- IC50: 300 nM

SMILES: C[C@]12CC[C@@H]3c4cc([N+](=O)[O-])c(O)cc4CC[C@H]3[C@@H]1CCC2=O
- IC50: 15000 nM

SMILES: C[C@]12CC[C@H]3[C@@H](CCC4=CC(=O)CC[C@@]43C=O)[C@@H]1CCC2=O
- IC50: 1200 nM

SMILES: C[C@]12CCC(=O)C=C1C(CCCc1ccccc1)=C[C@@H]1[C@@H]2CC[C@]2(C)C(=O)CC[C@@H]12
- IC50: 250 nM

SMILES: CCCCCCCC1=C[C@@]2(C)C(=CC1=O)CC[C@@H]1[C@@H]2CC[C@]2(C)C(=O)CC[C@@H]12
- IC50: 605 nM

SMILES: C[C@]12CC[C@H]3[C@@H](C(=O)C=C4C(=O)CCC[C@@]43CO)[C@@H]1CCC2=O
- IC50: 48000 nM

SMILES: C[C@]12CCCCC1=CC[C@@H]1[C@@H]2CC[C@]2(C)C(O)CC[C@@H]12 (stereo partly drawn)
- IC50: 30000 nM

SMILES: CO[C@H]1C[C@@H]2[C@H](CC[C@]3(C)[C@@H](O)CC[C@@H]23)c2ccc(O)cc21
- IC50: 99100 nM

SMILES: CCCCCCC[C@H]1C[C@@H]2[C@H](CC[C@]3(C)C(=O)CC[C@@H]23)[C@@]2(C)C=CC(=O)C=C12
- IC50: 250 nM

SMILES: C[C@]12CCC(=O)C=C1[C@@H](c1ccccc1)C[C@@H]1[C@@H]2CC[C@]2(C)C(=O)CC[C@@H]12
- IC50: 1100 nM

SMILES: CCCC[C@H]1C[C@@H]2[C@H](CC[C@]3(C)C(=O)CC[C@@H]23)[C@@]2(C)CCC(=O)C=C12
- IC50: 791 nM

SMILES: C[C@]12CC[C@@H]3c4cc(Br)c(O)cc4CC[C@H]3[C@@H]1CCC2=O
- IC50: 2400 nM

SMILES: CC[C@@H]1C[C@@H]2[C@H](CC[C@]3(C)C(O)CC[C@@H]23)[C@@]2(C)CCCC=C12 (stereo partly drawn)
- IC50: 1300 nM

SMILES: CCCCCC[C@@H]1C[C@@]2(C)C(=CC1=O)CC[C@@H]1[C@@H]2CC[C@]2(C)C(=O)CC[C@@H]12
- IC50: 10400 nM

From ChEMBL document CHEMBL5241054, “Effective anti-aromatase therapy to battle against estrogen-mediated breast cancer: Comparative SAR/QSAR assessment on steroidal aromatase inhibitors” (Eur J Med Chem, 2020)
